Patent US11116735B2, “Use of substituted benzylideneguanidine derivatives as synergists for polymyxin antibiotics” (GUANGZHOU INSIGHTER BIOTECHNOLOGY CO., LTD., priority 2015, dated 2021)

Key:
E. coli 3Y-9 = assay: MIC by doubling dilution, colistin sulfate-susceptible E. coli 3Y-9; format: cell-based, Escherichia coli; conditions: for In vitro minimum inhibitory concentration (MIC) of the substance alone: E. coli 3Y-9, colistin sulfate-susceptible, derivatives as hydrochlorides; for In vitro MIC of colistin sulfate in the presence of the substituted benzylideneguanidine derivative: E. coli 3Y-9, culture comprised 20.0 ppm of the derivative (hydrochloride), colistin sulfate serially diluted
E. coli 2S-19 = assay: MIC by doubling dilution, colistin sulfate-susceptible E. coli 2S-19; format: cell-based, Escherichia coli; conditions: for In vitro minimum inhibitory concentration (MIC) of the substance alone: E. coli 2S-19, colistin sulfate-susceptible, derivatives as hydrochlorides; for In vitro MIC of colistin sulfate in the presence of the substituted benzylideneguanidine derivative: E. coli 2S-19, culture comprised 20.0 ppm of the derivative (hydrochloride), colistin sulfate serially diluted
E. coli 5W-7 = assay: MIC by doubling dilution, colistin sulfate-susceptible E. coli 5W-7; format: cell-based, Escherichia coli; conditions: for In vitro minimum inhibitory concentration (MIC) of the substance alone: E. coli 5W-7, colistin sulfate-susceptible, derivatives as hydrochlorides; for In vitro MIC of colistin sulfate in the presence of the substituted benzylideneguanidine derivative: E. coli 5W-7, culture comprised 20.0 ppm of the derivative (hydrochloride), colistin sulfate serially diluted
E. coli 3B-24 = assay: MIC by doubling dilution, colistin sulfate-susceptible E. coli 3B-24; format: cell-based, Escherichia coli; conditions: for In vitro minimum inhibitory concentration (MIC) of the substance alone: E. coli 3B-24, colistin sulfate-susceptible, derivatives as hydrochlorides; for In vitro MIC of colistin sulfate in the presence of the substituted benzylideneguanidine derivative: E. coli 3B-24, culture comprised 20.0 ppm of the derivative (hydrochloride), colistin sulfate serially diluted
weanling piglets = assay: Synergy of derivatives and colistin sulfate in the feed for weanling piglets; format: in vivo, Duroc×Landrace×Large crossbred lean weanling piglets; conditions: creep feed with 20 ppm colistin sulfate and 150 ppm derivative (hydrochloride), ten days
Method: 90 28-day-aged Duroc×Landrace×Large crossbred lean weanling piglets similar in weight were divided into 9 groups, 10 piglets in each group. For each group, colistin sulfate and/or various substituted benzylideneguanidine derivatives were added into the antibiotic-free creep feed. The piglets were given ad libitum access to feed and water during the experiment. Weight gain, feed efficiency and diarrhea rate of each group within ten days were recorded.

E. coli 2G-7 = assay: MIC by doubling dilution, colistin sulfate-resistant E. coli 2G-7; conditions: for In vitro minimum inhibitory concentration (MIC) of the substance alone: E. coli 2G-7, colistin sulfate-resistant, derivatives as hydrochlorides; for In vitro MIC of colistin sulfate in the presence of the substituted benzylideneguanidine derivative: E. coli 2G-7, resistant, culture comprised 20.0 ppm of the derivative (hydrochloride)
Method: (§1) In vitro minimum inhibitory concentrations of colistin sulfate against the strains where the cultures respectively comprised 20.0 ppm of the substituted benzylideneguanidine derivatives were also measured.

E. coli 5F-1 = assay: MIC by doubling dilution, colistin sulfate-resistant E. coli 5F-1; conditions: for In vitro minimum inhibitory concentration (MIC) of the substance alone: E. coli 5F-1, colistin sulfate-resistant, derivatives as hydrochlorides; for In vitro MIC of colistin sulfate in the presence of the substituted benzylideneguanidine derivative: E. coli 5F-1, resistant, culture comprised 20.0 ppm of the derivative (hydrochloride)
Method: as §1

E. coli 4D-6 = assay: MIC by doubling dilution, colistin sulfate-resistant E. coli 4D-6; conditions: for In vitro minimum inhibitory concentration (MIC) of the substance alone: E. coli 4D-6, colistin sulfate-resistant, derivatives as hydrochlorides; for In vitro MIC of colistin sulfate in the presence of the substituted benzylideneguanidine derivative: E. coli 4D-6, resistant, culture comprised 20.0 ppm of the derivative (hydrochloride)
Method: as §1

E. coli 3H-4 = assay: MIC by doubling dilution, colistin sulfate-resistant E. coli 3H-4; conditions: for In vitro minimum inhibitory concentration (MIC) of the substance alone: E. coli 3H-4, colistin sulfate-resistant, derivatives as hydrochlorides; for In vitro MIC of colistin sulfate in the presence of the substituted benzylideneguanidine derivative: E. coli 3H-4, resistant, culture comprised 20.0 ppm of the derivative (hydrochloride)
Method: as §1

Compound | In vitro minimum inhibitory concentration (MIC) of the substance alone (E. coli 3Y-9) [ppm] | In vitro MIC of colistin sulfate in the presence of the substituted benzylideneguanidine derivative (E. coli 3Y-9) [ppm] | In vitro minimum inhibitory concentration (MIC) of the substance alone (E. coli 2S-19) [ppm] | In vitro MIC of colistin sulfate in the presence of the substituted benzylideneguanidine derivative (E. coli 2S-19) [ppm] | In vitro minimum inhibitory concentration (MIC) of the substance alone (E. coli 5W-7) [ppm] | In vitro MIC of colistin sulfate in the presence of the substituted benzylideneguanidine derivative (E. coli 5W-7) [ppm] | In vitro minimum inhibitory concentration (MIC) of the substance alone (E. coli 3B-24) [ppm] | In vitro MIC of colistin sulfate in the presence of the substituted benzylideneguanidine derivative (E. coli 3B-24) [ppm] | Average daily weight gain (weanling piglets) [g] | Diarrhea rate (weanling piglets) [%] | Feed conversion ratio (weanling piglets) | In vitro minimum inhibitory concentration (MIC) of the substance alone (E. coli 2G-7) [ppm] | In vitro MIC of colistin sulfate in the presence of the substituted benzylideneguanidine derivative (E. coli 2G-7) [ppm] | In vitro minimum inhibitory concentration (MIC) of the substance alone (E. coli 5F-1) [ppm] | In vitro MIC of colistin sulfate in the presence of the substituted benzylideneguanidine derivative (E. coli 5F-1) [ppm] | In vitro minimum inhibitory concentration (MIC) of the substance alone (E. coli 4D-6) [ppm] | In vitro MIC of colistin sulfate in the presence of the substituted benzylideneguanidine derivative (E. coli 4D-6) [ppm] | In vitro minimum inhibitory concentration (MIC) of the substance alone (E. coli 3H-4) [ppm] | In vitro MIC of colistin sulfate in the presence of the substituted benzylideneguanidine derivative (E. coli 3H-4) [ppm]
CCC(CC)Oc1ccc(C=NN=C(N)NN=Cc2ccc(OC(CC)CC)cc2)cc1 [Compound 5] | >800 | 2.00 | >800 | 1.00 | >800 | 1.00 | >800 | 2.00 | 231 | 25 | 1.565 | >800 | 8 | >800 | 16 | >800 | 32 | >800 | 8
Cc1ccc(C=NN=C(N)NN=Cc2ccc(C)cc2)cc1 [Compound 10] | >800 | 1.00 | >800 | 1.00 | >800 | 0.50 | >800 | 1.00 |  |  |  | >800 | 4 | >800 | 8 | >800 | 16 | >800 | 4
N#Cc1ccc(C=NN=C(N)NN=Cc2ccc(C#N)cc2)cc1 [Compound 13] | >800 | 1.00 | >800 | 1.00 | >800 | 0.50 | >800 | 0.50 |  |  |  | >800 | 4 | >800 | 8 | >800 | 16 | >800 | 4
N=C(NN=Cc1ccc(OC(F)(F)F)cc1)NN=Cc1ccc(OC(F)(F)F)cc1 [Compound 16] | >800 | 2.00 | >800 | 1.00 | >800 | 0.50 | >800 | 1.00 |  |  |  | >800 | 8 | >800 | 16 | >800 | 32 | >800 | 8
N=C(NN=Cc1ccc(OCc2ccccc2)cc1)NN=Cc1ccc(OCc2ccccc2)cc1 [Compound 7] | >800 | 2.00 | >800 | 2.00 | >800 | 1.00 | >800 | 2.00 | 240 | 16 | 1.576 | >800 | 8 | >800 | 8 | >800 | 32 | >800 | 8
